Measurements published in ChEMBL document CHEMBL4507300 (2021).

How the values were obtained:
[1] = test system: Tyrosine-protein kinase ABL1 (Homo sapiens), P00519 [T315I]; settings: Compound concentration 1000.0 nM
[2] = biological target: Rho-associated protein kinase 1 (Homo sapiens) (UniProt Q13464); settings: Compound concentration 1000.0 nM
[3] = test system: Receptor-type tyrosine-protein kinase FLT3 (Homo sapiens), P36888 [K663Q]; settings: Compound concentration 1000.0 nM
[4] = biological target: BDNF/NT-3 growth factors receptor (Homo sapiens) (UniProt Q16620); settings: Compound concentration 1000.0 nM
BDNF/NT-3 growth factors receptor (Homo sapiens), sequence (Q16620 32-822 limits assumed): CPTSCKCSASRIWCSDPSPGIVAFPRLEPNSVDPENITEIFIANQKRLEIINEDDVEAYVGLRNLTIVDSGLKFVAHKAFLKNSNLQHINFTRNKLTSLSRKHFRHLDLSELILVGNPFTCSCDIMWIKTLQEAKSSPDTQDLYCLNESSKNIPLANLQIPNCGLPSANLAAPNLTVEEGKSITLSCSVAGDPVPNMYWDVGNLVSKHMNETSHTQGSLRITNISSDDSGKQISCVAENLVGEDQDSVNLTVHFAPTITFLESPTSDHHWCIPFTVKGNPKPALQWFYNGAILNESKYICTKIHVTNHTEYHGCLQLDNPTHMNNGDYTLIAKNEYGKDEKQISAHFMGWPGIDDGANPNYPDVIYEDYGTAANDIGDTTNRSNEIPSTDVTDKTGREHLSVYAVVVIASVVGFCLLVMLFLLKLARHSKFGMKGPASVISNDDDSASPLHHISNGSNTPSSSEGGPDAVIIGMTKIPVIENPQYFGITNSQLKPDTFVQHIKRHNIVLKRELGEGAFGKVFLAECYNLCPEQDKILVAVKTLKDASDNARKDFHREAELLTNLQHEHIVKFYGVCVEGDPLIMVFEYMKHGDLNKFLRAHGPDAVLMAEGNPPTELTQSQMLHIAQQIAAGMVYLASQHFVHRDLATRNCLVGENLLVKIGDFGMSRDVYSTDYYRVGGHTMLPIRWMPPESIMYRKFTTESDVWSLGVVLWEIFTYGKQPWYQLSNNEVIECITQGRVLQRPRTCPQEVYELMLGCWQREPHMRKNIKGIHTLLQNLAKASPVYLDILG

[5] = biological target: Myosin-IIIb (Homo sapiens) (UniProt Q8WXR4); settings: Compound concentration 1000.0 nM
Myosin-IIIb (Homo sapiens), sequence (Q8WXR4 whole entry, canonical isoform): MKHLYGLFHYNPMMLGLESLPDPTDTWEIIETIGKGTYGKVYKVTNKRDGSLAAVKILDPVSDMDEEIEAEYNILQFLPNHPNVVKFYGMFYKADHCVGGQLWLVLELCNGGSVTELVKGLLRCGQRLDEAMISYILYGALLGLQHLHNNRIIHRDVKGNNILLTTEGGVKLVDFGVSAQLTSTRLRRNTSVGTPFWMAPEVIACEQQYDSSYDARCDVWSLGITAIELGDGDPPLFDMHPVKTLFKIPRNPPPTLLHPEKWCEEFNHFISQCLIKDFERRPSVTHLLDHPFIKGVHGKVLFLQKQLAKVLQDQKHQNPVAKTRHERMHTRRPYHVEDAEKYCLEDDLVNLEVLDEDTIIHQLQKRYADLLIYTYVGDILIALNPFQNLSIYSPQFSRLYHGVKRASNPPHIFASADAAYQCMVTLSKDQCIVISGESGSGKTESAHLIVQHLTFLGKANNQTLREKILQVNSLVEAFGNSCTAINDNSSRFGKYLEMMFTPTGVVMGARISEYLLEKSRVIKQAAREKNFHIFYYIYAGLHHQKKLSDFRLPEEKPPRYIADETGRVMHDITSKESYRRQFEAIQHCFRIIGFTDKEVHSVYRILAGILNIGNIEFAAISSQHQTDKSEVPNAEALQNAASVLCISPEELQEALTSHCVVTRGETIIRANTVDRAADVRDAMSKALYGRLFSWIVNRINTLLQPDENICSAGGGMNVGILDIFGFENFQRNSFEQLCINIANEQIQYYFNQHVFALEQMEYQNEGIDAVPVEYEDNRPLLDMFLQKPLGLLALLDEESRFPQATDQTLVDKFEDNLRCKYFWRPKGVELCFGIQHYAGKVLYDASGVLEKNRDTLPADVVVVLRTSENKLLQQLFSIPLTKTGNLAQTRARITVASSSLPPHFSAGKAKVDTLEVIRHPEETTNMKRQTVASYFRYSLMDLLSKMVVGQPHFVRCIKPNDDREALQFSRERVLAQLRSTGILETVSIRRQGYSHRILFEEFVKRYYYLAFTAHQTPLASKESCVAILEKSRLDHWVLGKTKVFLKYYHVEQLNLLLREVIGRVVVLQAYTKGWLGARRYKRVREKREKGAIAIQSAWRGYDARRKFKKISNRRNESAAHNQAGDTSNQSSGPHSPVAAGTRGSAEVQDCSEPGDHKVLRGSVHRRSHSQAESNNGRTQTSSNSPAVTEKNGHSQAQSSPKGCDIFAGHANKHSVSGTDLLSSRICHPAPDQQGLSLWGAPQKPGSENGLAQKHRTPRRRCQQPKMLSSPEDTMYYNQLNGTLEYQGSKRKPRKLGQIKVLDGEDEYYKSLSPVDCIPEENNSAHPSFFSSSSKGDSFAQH

[6] = biological target: Casein kinase I isoform alpha (Homo sapiens) (UniProt P48729); settings: Compound concentration 1000.0 nM
Casein kinase I isoform alpha (Homo sapiens), sequence (P48729 2-337 limits assumed): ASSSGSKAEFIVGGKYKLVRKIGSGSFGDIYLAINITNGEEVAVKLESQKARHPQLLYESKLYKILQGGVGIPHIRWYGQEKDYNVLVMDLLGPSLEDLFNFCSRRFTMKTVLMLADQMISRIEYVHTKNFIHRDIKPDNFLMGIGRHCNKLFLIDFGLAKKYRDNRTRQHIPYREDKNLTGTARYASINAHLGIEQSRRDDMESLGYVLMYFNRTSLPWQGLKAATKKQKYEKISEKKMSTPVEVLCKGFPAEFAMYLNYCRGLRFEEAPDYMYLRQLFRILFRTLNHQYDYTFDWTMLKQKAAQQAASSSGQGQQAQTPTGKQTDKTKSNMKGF

[7] = test system: Tyrosine-protein kinase ABL1 (Homo sapiens), P00519 [F317L]; settings: Compound concentration 1000.0 nM
[8] = biological target: Delta-type opioid receptor (Homo sapiens) (UniProt P41143); settings: Compound concentration 10.0 uM
Delta-type opioid receptor (Homo sapiens), sequence (P41143 whole entry): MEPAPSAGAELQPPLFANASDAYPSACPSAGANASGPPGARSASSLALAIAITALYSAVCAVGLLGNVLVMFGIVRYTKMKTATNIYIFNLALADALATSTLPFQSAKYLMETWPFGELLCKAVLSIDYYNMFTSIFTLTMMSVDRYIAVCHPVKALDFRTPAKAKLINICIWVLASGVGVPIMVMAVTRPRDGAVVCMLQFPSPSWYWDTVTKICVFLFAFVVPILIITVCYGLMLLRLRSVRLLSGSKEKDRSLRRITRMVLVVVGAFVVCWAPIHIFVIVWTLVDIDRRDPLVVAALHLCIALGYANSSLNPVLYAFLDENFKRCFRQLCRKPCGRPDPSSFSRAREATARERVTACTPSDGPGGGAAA

Rho-associated protein kinase 1 (Homo sapiens), sequence (Q13464 2-1354 limits assumed): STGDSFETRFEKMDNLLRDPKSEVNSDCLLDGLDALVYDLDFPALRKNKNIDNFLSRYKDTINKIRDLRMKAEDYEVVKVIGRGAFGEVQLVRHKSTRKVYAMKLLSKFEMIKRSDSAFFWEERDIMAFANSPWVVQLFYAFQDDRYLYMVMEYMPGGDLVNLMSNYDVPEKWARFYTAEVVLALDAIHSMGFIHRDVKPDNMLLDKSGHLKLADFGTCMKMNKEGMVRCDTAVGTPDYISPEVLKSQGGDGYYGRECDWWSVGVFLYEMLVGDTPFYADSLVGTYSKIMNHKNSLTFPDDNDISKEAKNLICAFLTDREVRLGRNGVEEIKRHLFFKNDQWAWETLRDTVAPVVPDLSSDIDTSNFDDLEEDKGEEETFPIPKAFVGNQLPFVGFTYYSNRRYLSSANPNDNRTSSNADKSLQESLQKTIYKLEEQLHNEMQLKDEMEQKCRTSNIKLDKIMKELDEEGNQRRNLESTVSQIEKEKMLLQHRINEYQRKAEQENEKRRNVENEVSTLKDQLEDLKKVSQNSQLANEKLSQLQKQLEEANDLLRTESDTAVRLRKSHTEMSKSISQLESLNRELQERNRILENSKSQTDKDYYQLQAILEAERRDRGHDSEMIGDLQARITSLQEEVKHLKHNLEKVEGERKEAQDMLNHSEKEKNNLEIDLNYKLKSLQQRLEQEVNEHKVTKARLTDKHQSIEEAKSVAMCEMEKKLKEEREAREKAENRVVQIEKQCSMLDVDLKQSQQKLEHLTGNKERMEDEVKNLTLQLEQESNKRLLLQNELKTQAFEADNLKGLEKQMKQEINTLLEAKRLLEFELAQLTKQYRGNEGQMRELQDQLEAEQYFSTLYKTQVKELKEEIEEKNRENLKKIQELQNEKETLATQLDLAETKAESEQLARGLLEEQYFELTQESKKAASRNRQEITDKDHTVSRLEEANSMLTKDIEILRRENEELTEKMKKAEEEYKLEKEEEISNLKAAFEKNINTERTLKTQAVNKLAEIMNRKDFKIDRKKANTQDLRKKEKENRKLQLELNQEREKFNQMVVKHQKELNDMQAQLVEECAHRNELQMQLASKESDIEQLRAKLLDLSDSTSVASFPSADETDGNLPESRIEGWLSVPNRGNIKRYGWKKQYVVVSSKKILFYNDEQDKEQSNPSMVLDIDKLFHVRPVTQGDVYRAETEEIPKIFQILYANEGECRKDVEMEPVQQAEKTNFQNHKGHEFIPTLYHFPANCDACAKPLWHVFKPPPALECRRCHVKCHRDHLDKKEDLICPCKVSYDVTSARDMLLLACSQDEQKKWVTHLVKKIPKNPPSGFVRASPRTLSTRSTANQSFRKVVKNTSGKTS

COc1cccc(CNC(=O)c2nc3scc(COCc4ccc(C(=O)O)cc4)c3c(=O)[nH]2)c1 [T-26c]
inactive: residual activity [1] 92% | residual activity [2] 100% | residual activity [3] 93% | residual activity [4] 67.1% | residual activity [5] 100% | residual activity [6] 82.1% | residual activity [7] 87.2% | inhibition [8] -5.04%
